By inhibition is commonly meant the percentage by which the read-out fell short of the control. As a reminder, the IC50 is the concentration at which inhibition is half-maximal.

This note sets out measurements from ChEMBL document CHEMBL5331077, “Combining pharmacophore models derived from DNA-encoded chemical libraries with structure-based exploration to predict Tankyrase 1 inhibitors” (Eur J Med Chem, 2023).

In test [1] the target is T1, Poly [ADP-ribose] polymerase tankyrase-1 (Homo sapiens) (UniProt O95271).
T1 sequence (whole entry): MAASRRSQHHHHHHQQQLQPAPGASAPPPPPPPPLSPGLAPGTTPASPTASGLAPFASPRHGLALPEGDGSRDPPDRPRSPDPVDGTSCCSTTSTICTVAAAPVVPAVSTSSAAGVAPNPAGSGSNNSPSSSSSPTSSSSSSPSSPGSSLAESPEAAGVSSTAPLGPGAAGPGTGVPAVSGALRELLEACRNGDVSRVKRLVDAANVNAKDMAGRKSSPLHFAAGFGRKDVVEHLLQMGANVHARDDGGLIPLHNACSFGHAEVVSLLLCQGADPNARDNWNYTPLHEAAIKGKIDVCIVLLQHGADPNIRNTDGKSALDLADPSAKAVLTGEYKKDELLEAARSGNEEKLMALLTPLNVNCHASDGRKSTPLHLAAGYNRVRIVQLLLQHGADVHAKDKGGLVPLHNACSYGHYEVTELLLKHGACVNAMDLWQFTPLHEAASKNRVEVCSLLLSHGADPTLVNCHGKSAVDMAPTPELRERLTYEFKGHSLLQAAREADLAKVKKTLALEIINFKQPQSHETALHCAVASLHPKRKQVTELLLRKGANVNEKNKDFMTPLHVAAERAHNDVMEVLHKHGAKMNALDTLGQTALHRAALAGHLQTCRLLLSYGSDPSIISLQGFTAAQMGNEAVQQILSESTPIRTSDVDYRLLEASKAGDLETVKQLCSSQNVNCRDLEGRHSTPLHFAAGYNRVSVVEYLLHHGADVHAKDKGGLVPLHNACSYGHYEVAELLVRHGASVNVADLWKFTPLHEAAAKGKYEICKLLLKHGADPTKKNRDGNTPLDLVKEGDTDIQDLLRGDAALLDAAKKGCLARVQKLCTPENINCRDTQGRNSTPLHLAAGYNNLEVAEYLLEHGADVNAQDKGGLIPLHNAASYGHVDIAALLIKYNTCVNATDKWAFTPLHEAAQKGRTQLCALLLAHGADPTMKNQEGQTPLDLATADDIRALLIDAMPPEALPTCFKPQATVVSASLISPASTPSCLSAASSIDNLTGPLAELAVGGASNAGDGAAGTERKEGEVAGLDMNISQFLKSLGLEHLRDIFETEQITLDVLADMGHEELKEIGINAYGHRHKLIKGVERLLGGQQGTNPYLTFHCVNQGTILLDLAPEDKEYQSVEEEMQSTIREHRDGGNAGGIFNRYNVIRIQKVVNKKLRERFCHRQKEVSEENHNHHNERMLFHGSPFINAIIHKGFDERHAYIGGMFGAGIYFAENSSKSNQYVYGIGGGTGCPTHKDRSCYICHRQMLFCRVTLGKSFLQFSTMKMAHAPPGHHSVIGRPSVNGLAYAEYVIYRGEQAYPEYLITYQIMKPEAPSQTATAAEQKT
The test can be described thus: Inhibition of TNKS1 (unknown origin) at 10 uM using biotinylated NAD as substrate preincubated for 30 mins followed by substrate addition and measured after 1 hr by BioTek synergy 2 microplate reader analysis relative to control. Particulars: time 90.0 min.

For test [2], the target named is T2, Poly [ADP-ribose] polymerase tankyrase-1 (Homo sapiens, UniProt O95271).
T2 sequence (O95271 whole entry): T1 sequence (whole entry)
Briefly: Inhibition of TNKS1 (unknown origin) using biotinylated NAD as substrate preincubated for 30 mins followed by substrate addition and measured after 1 hr by BioTek synergy 2 microplate reader analysis.

Test [3] addresses T3, Poly [ADP-ribose] polymerase tankyrase-2 (Homo sapiens) (UniProt Q9H2K2).
T3 sequence (whole entry): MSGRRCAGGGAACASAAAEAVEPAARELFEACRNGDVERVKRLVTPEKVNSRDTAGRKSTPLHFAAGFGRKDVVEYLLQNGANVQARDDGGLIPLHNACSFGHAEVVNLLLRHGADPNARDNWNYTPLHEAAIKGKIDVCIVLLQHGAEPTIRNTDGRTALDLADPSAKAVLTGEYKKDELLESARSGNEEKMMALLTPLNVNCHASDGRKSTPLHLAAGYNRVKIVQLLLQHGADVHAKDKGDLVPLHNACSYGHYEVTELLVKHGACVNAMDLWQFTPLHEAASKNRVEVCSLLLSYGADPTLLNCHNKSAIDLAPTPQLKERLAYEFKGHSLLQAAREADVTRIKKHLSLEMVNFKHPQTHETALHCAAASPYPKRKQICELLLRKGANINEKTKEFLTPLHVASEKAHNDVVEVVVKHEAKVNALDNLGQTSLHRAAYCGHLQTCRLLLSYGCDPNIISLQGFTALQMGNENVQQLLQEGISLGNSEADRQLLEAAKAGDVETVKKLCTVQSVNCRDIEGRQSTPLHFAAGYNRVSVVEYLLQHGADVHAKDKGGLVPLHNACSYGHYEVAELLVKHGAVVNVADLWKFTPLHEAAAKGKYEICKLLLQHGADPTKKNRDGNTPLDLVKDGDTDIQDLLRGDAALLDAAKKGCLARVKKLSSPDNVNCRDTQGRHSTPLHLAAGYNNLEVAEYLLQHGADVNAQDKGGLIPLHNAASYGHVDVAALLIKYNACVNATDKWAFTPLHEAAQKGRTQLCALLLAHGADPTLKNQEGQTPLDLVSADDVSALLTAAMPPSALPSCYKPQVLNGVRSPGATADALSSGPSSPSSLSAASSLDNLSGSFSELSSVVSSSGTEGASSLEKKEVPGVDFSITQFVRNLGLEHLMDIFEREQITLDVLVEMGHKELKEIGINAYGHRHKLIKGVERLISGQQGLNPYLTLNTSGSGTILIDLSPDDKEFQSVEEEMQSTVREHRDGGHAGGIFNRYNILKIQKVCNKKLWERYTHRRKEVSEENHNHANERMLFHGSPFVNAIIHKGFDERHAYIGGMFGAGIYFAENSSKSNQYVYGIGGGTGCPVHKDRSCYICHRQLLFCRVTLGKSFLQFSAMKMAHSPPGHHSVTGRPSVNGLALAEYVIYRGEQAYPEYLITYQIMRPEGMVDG
The test can be described thus: Inhibition of TNKS2 (unknown origin) at 0.5 uM relative to control.

For test [4], the target named is Poly [ADP-ribose] polymerase 1 (Homo sapiens) (UniProt P09874). Briefly: Inhibition of human PARP1 at 0.5 uM relative to control.
For test [5] the target is unchanged. Briefly: Inhibition of human PARP1 at 50 nM relative to control.
The target of test [6] is Poly [ADP-ribose] polymerase 2 (Homo sapiens) (UniProt Q9UGN5). The test can be described thus: Inhibition of human PARP2 at 50 nM relative to control.
The target in test [7] is T3, Poly [ADP-ribose] polymerase tankyrase-2 (Homo sapiens). The test can be described thus: Inhibition of TNKS2 (unknown origin) at 50 nM relative to control.
Test [8] deals with Poly [ADP-ribose] polymerase 2 (Homo sapiens) (UniProt Q9UGN5). The test can be described thus: Inhibition of human PARP2 at 0.5 uM relative to control.
Test [9] addresses T1, Poly [ADP-ribose] polymerase tankyrase-1 (Homo sapiens). Briefly: Inhibition of TNKS1 (unknown origin) at 100 nM using biotinylated NAD as substrate preincubated for 30 mins followed by substrate addition and measured after 1 hr by BioTek synergy 2 microplate reader analysis relative to control. Conditions: time 90.0 min.

Sequence of Poly [ADP-ribose] polymerase 1 (Homo sapiens) (P09874 whole entry): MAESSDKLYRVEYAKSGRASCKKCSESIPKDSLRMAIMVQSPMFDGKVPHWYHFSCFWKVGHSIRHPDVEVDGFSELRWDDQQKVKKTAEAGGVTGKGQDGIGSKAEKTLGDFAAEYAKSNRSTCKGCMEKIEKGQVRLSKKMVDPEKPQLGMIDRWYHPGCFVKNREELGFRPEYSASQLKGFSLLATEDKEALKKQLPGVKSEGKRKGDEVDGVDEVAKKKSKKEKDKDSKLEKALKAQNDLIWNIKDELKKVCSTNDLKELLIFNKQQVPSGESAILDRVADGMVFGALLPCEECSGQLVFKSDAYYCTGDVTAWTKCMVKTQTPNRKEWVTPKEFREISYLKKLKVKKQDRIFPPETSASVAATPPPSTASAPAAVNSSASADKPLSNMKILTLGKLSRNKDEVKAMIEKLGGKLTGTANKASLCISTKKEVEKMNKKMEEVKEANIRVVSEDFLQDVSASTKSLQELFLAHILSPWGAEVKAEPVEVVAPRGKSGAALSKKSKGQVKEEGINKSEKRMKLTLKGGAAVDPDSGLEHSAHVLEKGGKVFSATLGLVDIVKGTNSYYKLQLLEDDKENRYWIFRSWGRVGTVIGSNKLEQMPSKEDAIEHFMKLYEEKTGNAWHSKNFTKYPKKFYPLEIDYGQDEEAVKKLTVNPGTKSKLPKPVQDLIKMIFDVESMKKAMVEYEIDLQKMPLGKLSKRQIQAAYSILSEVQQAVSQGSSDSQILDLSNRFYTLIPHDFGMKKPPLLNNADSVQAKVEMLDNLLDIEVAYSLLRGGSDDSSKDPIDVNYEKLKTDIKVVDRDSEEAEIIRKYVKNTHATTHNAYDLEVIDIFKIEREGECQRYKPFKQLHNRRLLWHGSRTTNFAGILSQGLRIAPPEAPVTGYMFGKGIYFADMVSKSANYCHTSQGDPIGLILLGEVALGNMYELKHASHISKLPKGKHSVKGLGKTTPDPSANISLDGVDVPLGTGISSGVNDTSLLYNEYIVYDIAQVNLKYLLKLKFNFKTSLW
Sequence of Poly [ADP-ribose] polymerase 2 (Homo sapiens) (Q9UGN5 whole entry): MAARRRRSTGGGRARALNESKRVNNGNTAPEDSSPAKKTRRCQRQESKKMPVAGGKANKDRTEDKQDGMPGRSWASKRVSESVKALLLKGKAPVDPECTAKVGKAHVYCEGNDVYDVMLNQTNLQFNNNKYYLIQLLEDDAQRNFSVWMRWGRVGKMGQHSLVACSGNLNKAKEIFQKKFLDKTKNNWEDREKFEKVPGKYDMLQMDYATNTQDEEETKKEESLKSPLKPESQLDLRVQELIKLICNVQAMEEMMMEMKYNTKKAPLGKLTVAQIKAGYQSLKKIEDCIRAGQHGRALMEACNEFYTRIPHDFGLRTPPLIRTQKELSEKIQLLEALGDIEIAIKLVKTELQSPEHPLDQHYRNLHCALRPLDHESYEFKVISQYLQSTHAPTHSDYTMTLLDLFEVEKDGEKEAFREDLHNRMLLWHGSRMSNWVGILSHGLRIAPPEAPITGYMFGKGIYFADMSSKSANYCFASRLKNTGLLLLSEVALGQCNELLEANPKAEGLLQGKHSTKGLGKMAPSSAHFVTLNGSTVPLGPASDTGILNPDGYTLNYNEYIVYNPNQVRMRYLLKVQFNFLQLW

Regarding `O=C(Cc1n[nH]c(=O)c2ccccc12)Nc1ccc(Cc2nc3ccccc3s2)cc1`, in [1], the inhibition stood at 35%. With `CNC(=O)[C@H](CNC(=O)c1cccc(COc2ccccc2C(N)=O)c1)NC(=O)COc1cc(C)cc2oc(=O)c3c(c12)CCC3`, the IC50 in test [2] amounted to 33 nM. Regarding `O=C(CCc1nc2ccccc2c(=O)[nH]1)Nc1ccc(-n2cnnn2)cc1`, in test [1], the inhibition stood at 67%.

In the case of `O=C(CCn1c(=O)[nH]c(=O)c2ccccc21)NCCNC(=O)c1cnc2ccccc2c1`, the IC50 in [2] is 8.3 nM. In the case of `Cc1ccc2c(c1)NC(=O)C2CC(=O)NCCNC(=O)CCn1c(=O)[nH]c(=O)c2ccccc21` (stereo not drawn), the IC50 in test [2] came out at 75 nM.

For `O=C(NCCNC(=O)c1n[nH]c(=O)c2ccccc12)c1cccc(CN2C(=O)CNC2=O)c1`, the inhibition in test [3] was found to be 93%; in test [4] it was 47%; in test [5], 17%; in test [6] it was 3%; in [7] it was 49%; in [8] it was 53%. Also, in test [2], the IC50 worked out at 69 nM.

As to `CNC(=O)[C@H](CNC(=O)Cn1[nH]c(=O)c2ccccc2c1=O)NC(=O)c1cnc(C)cn1`, in [2], the IC50 was determined as 140 nM. For the compound `O=C(Cc1n[nH]c(=O)c2ccccc12)OCC(=O)N1CCN(c2ccccn2)CC1`, the values for the inhibition in [1] and in [9] were 100% and 78%, respectively. In [2], the IC50 stood at 22 nM. Regarding `O=C(NCc1ccc(-c2ccc3c(c2)CCCO3)cc1)c1nc2ccccc2c(=O)[nH]1`, the inhibition in [1] was 74%. Turning to `Cc1ccc(C)c(NC(=O)CSc2nnc(Cc3cc(=O)[nH]c(=O)[nH]3)n2-c2ccc(Cl)cc2)c1`, the inhibition in [1] is 7%; in test [9], 0%. Regarding `CC(=O)N1CCC[C@H]1C(=O)NCCNC(=O)Cn1[nH]c(=O)c2ccccc2c1=O`, the IC50 in test [2] was 4900 nM. The same measure, in the same setting: the value for `CC(=O)N1CCC[C@H]1C(=O)NCCNC(=O)CCn1c(=O)[nH]c(=O)c2ccccc21` was 26000 nM. `Cc1cnc(C(=O)NCCNC(=O)Cn2[nH]c(=O)c3ccccc3c2=O)cn1`: the inhibition in test [3] came out at 92%; in [4], 52%; in test [5], 14%; in test [6], 0%; in test [7], 49%; in [8], 52%. For the same compound, the IC50 in [2] was determined as 47 nM. On to `O=C(Cn1cnc2ccccc2c1=O)N1CCC(c2nnc(-c3ccco3)s2)CC1`, for which the inhibition in [1] was 0%. On the same count and under the same terms, under `O[C@H](c1ccccc1)c1cn(C2CCN(Cc3cnc4ccccc4c3)CC2)nn1` stands 5%.

For `COc1ccc2c(c1)C(CC(=O)NCCNC(=O)CCn1c(=O)[nH]c(=O)c3ccccc31)CC2=O` (stereo not drawn), the IC50 in test [2] came to 15 nM. As for `COc1ccc(C(N)=O)cc1NC(=O)c1cccc(-c2cnc3[nH]c(=O)n(C)c3c2)c1`, the inhibition stood at 97% in test [1] and 3% in test [9].
